# Results published in patent US5017577A, “Methods for treating viral infection” (Burroughs Wellcome Co., priority 1989, dated 1991).
# Biological target: T1, adenosine (purine) receptors (Cavia porcellus, UniProt P47745)
# T1 construct: Ilea were removed from sacrificed guinea pigs; from tissue; host or cells: guinea pig ileum
# T1 sequence (P47745 1-326): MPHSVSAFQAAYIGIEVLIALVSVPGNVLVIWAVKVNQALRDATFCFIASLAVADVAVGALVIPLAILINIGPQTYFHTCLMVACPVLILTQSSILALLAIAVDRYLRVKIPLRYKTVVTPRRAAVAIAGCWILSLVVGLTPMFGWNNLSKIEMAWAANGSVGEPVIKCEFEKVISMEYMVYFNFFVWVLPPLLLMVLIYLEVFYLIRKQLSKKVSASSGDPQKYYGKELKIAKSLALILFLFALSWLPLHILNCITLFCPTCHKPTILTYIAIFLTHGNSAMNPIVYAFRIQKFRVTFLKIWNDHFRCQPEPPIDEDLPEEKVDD
# Test: Guinea pig ileum twitch test: purine receptor antagonism against 2-chloroadenosine (Schild regression)
# Details: agonist 2-chloroadenosine
# Method: Accordingly, a representative number of compounds of the present invention were tested for their ability to antagonise the purine receptors using the guinea pig ileum test system.
# Ilea were removed from sacrificed guinea pigs and placed in organ baths containing oxygenated Krebs-Henseleit buffer. After equilibration, the ilea were stimulated to contract (twitch contraction) using an electrical field-stimulus of 0.1 Hz, 0.05 ms duration and maximal voltage. Under these conditions, the twitch contraction results from the release of acetylcholine.
# Concentration response curves to the purine agonist, 2-chloroadenosine, were determined first in the absence and then in the presnce of multiple concentrations of the compounds of the invention. One concentration of each compound was used per tissue. Quantification of purine receptor antagonism was accomplished using the Schild regression technique, i.e. plots of log (dose-ratio-l) vs log compound concentration, and the pA2 determined by regression of the data points to the x-intercept, where log (dose-ratio-l) is zero.
row,pA2 guinea pig ileum (slope): slope of Schild regression,SMILES
1,1.0,"CC(C)Cn1c(=O)c2nc(-c3ccc(/C=C/C(=O)O)cc3)[nH]c2n(CC(C)C)c1=O [Example 19, (E)-4-(1,2,3,6-tetrahydro-1,3-diisobutyl-2,6-dioxo-9H-purin-8-yl) cinnamic acid]"
2,0.9,"CCCn1c(=O)c2nc(-c3ccc(/C=C/C(=O)O)cc3)[nH]c2n(CCC)c1=O [Example 6, (E)-4-(1,2,3,6-tetrahydro-2,6-dioxo-1,3-dipropyl-9H-purin-8-yl)cinnamic acid]"
3,1.0,"CCCCn1c(=O)c2nc(-c3ccc(/C=C/C(=O)O)cc3)[nH]c2n(CCCC)c1=O [Example 14, (E)-4-(1,3-dibutyl-1,2,3,6-tetrahydro-2,6-dioxo-9H-purin-8-yl)cinnamic acid]"
4,1.0,"CCCn1c(=O)n(C)c(=O)c2nc(-c3ccc(/C=C/C(=O)O)cc3)[nH]c21 [Example 11, (E)-4-(1,2,3,6-tetrahydro-1-methyl-2,6-dioxo-3-propyl-9H-purin-8-yl)cinnamic acid]"
5,0.9,"Cn1c(=O)c2nc(-c3ccc(/C=C/C(=O)O)cc3)[nH]c2n(Cc2ccccc2)c1=O [Example 18, (E)-4-(3-benzyl-1,2,3,6-tetrahydro-1-methyl-2,6-dioxo-9H-purin-8-yl) cinnamic acid]"

row,SMILES,pA2 guinea pig ileum (slope): slope of Schild regression
1,"O=C(O)/C=C/c1ccc(-c2nc3c(=O)n(Cc4ccccc4)c(=O)n(Cc4ccccc4)c3[nH]2)cc1 [Example 15, (E)-4-(1,3-dibenzyl-1,2,3,6-tetrahydro-2,6-dioxo-9H-purin-8 yl) cinnamic acid]",0.9

# Test system: AIDV
# Test: Anti-retroviral activity against AIDV
# Design: species or system AIDV (HTLV III)
# Details: in words
row,SMILES,"anti-retroviral activity, especially against AIDV"
1,"O=C(O)/C=C/c1ccc(-c2nc3c(=O)n(Cc4ccccc4)c(=O)n(Cc4ccccc4)c3[nH]2)cc1 [Example 15, (E)-4-(1,3-dibenzyl-1,2,3,6-tetrahydro-2,6-dioxo-9H-purin-8 yl) cinnamic acid]",especially potent activity against AIDV
